# Assay results from US9827237B2, “Compounds useful for treating diseases caused by retroviruses” (ABIVAX, priority 2013, dated 2017).
# Test system: HTLV-1
# Assay: Inhibition of HTLV-1: Tax-1 protein expression by western blotting in HUT102 cells
# Format: cell-based, Human T-lymphotropic virus (HTLV)
# Conditions: HUT102 (HTLV-1 chronically infected) cells, 10 μM daily for three days; western blot, normalised by tubulin, related to DMSO treated cells; triplicate
# Procedure: To determine whether the compounds described above could act as HTLV inhibitors, a screen was performed on HUT102 (HTLV-1 chronically infected) cells.
# Cells were plated at a density of 150 000 cells per well in 96 wells plates and treated daily with 10 μM of compounds for three days.
# Cells were then harvested and an aliquot was used for cytotoxicity evaluation with Cell Titer (Promega).
# The remaining cells was washed in phosphate buffer saline (PBS) and lysed for protein quantification with Bradford Assay (Sigma).
# Then, HTLV Tax-1 protein expression was evaluated from 30 μg of total proteins by western blotting analysis.
# Tax-1 expression was normalised by tubulin expression and related to control (DMSO treated) cells. Each compound was tested in triplicate.
smiles,measurement,value
"COc1ccc(Nc2ccc3c(N4CCN(C)CC4)ccnc3c2)cc1 [Compound 166, N-(4-methoxyphenyl)-4-(4-methylpiperazin-1-yl)quinolin-7-amine]",reduced Tax-1 expression when compared to control,80%
